Results taken from the supplement of paper PMC10307832.

How the values were obtained:
Test in all cases: relative viability (nuclei count vs DMSO), 5 days (fraction); higher = more cells survive
[1] = compound: CN(C)C(=N)NC(=N)N [Metformin] + CC1(C)CCC(c2ccc(Cl)cc2)=C(CN2CCN(c3ccc(C(=O)NS(=O)(=O)c4ccc(N[C@H](CCN5CCOCC5)CSc5ccccc5)c(S(=O)(=O)C(F)(F)F)c4)cc3)CC2)C1 [Navitoclax] (partner 0.5 µM)
In short: (§1)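 The day after seeding in 1536-well plates, lung cancer cell lines were treated by pin tool with a single drug, or with a fixed anchor-drug dose together with five library-drug doses (not always all listed) in √10 steps. After 5 days, a combined fix-and-stain solution (final 0.05% Triton X-100, 1% formaldehyde, 1 ug/ml Hoechst) was added. Nuclei counted on 4× images gave relative viability as treated counts over vehicle counts, reported as the median of duplicate plates.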

[2] = compound: CN(C)C(=N)NC(=N)N [Metformin] + CS(=O)(=O)CCNCc1ccc(-c2ccc3ncnc(Nc4ccc(OCc5cccc(F)c5)c(Cl)c4)c3c2)o1 [Lapatinib] (partner 2 µM)
In short: as §1

[3] = compound: N#CC1(c2ccc(NC(=O)c3cccnc3NCc3ccncc3)cc2)CCCC1 [Apatinib] + CCNC(=O)c1noc(-c2cc(C(C)C)c(O)cc2O)c1-c1ccc(CN2CCOCC2)cc1 [Luminespib] (partner 0.01 µM)
In short: as §1

[4] = compound: N#CC1(c2ccc(NC(=O)c3cccnc3NCc3ccncc3)cc2)CCCC1 [Apatinib] + Cc1nc(Nc2ncc(C(=O)Nc3c(C)cccc3Cl)s2)cc(N2CCN(CCO)CC2)n1 [Dasatinib] (partner 0.075 µM)
In short: as §1

Cell Line | relative viability ([1]; first compound 31.62 µM) | relative viability ([1]; first compound 100 µM) | relative viability ([1]; first compound 316.23 µM) | relative viability ([1]; first compound 1000 µM) | relative viability ([2]; first compound 31.62 µM) | relative viability ([2]; first compound 100 µM) | relative viability ([2]; first compound 316.23 µM) | relative viability ([2]; first compound 1000 µM) | relative viability ([3]; first compound 0.08 µM) | relative viability ([3]; first compound 0.253 µM) | relative viability ([3]; first compound 0.8 µM) | relative viability ([3]; first compound 2.53 µM) | relative viability ([3]; first compound 8 µM) | relative viability ([4]; first compound 0.08 µM) | relative viability ([4]; first compound 0.253 µM) | relative viability ([4]; first compound 0.8 µM) | relative viability ([4]; first compound 2.53 µM) | relative viability ([4]; first compound 8 µM) | relative viability ([1]; first compound 10 µM) | relative viability ([2]; first compound 10 µM)
201T | 1.26 | 1.17 | 1.16 | 1.17 | 1.08 | 1.07 | 0.989 | 1 | 0.983 | 1.02 | 1.12 | 1 | 0.855 | 0.617 | 0.511 | 0.525 | 0.502 | 0.423 | – | –
NCI-H2009 | 1.16 | 1.21 | 1.17 | 1.07 | 0.98 | 1.01 | 0.889 | 0.991 | 1.1 | 1.09 | 0.988 | 0.992 | 0.86 | 0.374 | 0.326 | 0.31 | 0.195 | 0.179 | 1.19 | 0.574
HCC-78 | 1.17 | 1.01 | 1 | 1.06 | 1.05 | 0.863 | 0.933 | 0.969 | – | – | – | – | – | 0.332 | 0.289 | 0.361 | 0.333 | 0.302 | 0.994 | 0.494
NCI-H661 | – | – | – | – | 0.783 | 0.811 | 0.688 | 0.57 | 0.973 | 0.873 | 0.898 | 0.95 | 0.865 | 1.12 | 0.957 | 0.803 | 0.702 | 0.708 | – | 0.58
